# Results from patent US20130060024A1, “Compounds useful for treating neurodegenerative disorders” (SATORI PHARMACEUTICALS, INC., priority 2011, published 2013).
# Read-outs that look alike come from different tables or passages of the source.
# Assays:
# Type in all cases: cell-based
# Details in all cases: Homo sapiens
# Aβ-42 = Aβ-42 MSD 3-PLEX ELISA, conditioned media of 2B7 cells
# Procedure: (§1) Assays were conducted to determine the ability of a Compound of Formula I to modulate […], […], and Aβ-38. Human (6E10) Ab 3-PLEX ELISA kits were purchased from Meso Scale Discovery Labs, 9328 Gaither Road, Gaithersburg, Md. 20877 (Catalog Number […]-3). Plates with capture antibodies were blocked for 1-2 hours at room temperature with 150 μL of the manufactures blocking reagent. Cultured 2B7 cells in 96 well plate with 250 μL of media per well until confluent; Prepared serial dilutions of compounds in DMSO at 100× the final desired concentration; Washed wells with 2B7 cells 1× with 250 μL of media; Diluted DMSO stocks 1:100 into media: Added 250 μL of media containing compounds (1% DMSO) to wells with 2B7 cells for 5 hours at 37° C. Diluted conditioned media: 1 part media with 1% DMSO and 1 part blocking buffer; 150 μL of the 250 μL of conditioned media were used. Seven point standard curve samples were prepared that contained Aβ-42, Aβ-40, and Aβ-38. The highest concentration of Aβ-42 and Aβ-38 was 3,000 pg/mL and the highest concentration of Aβ-40 was 10,000 pg/mL. Subsequent serial dilutions were 1:3 and the final composition of each sample was 1 part blocking buffer and 1 part cell medium containing 1% DMSO. Blocked plates are washed 5× with MSD wash buffer with a plate washer; 25 μL of detection antibody and blocker G reagent in MSD blocking solution was added; 25 μL of samples (1 part conditioned media containing 1% DMSO and 1 part MSD blocking buffer) were then added; Plates were incubated overnight at 4 degrees C. or 2 hours at room temperature. Washed wells 5× with MSD wash buffer; Added 150 μL 2×MSD read buffer; Read with MSD imager. Aβ peptide levels for each peptide were calculated from the standard curve using the MSD software provided with the MSD 2400 Imager. Percent vehicle values for each compound dosage were then calculated and fit to a 4 parameter curve generating IC50 values.
# Aβ-40 = Aβ-40 MSD 3-PLEX ELISA, conditioned media of 2B7 cells
# Procedure: as §1
# Aβ-38 = Aβ-38 MSD 3-PLEX ELISA, conditioned media of 2B7 cells
# Procedure: as §1
# [1] = 5 h, read-out: Aβ 42 DR IC50 Inflection
# [2] = 2B7 cells, 5 hours at 37° C., 1% DMSO, read-out: Aβ 42 IC50
# [3] = 2B7 cells, 5 hours at 37° C., 1% DMSO, read-out: Aβ 40 IC50
# [4] = 2B7 cells, 5 hours at 37° C., 1% DMSO, read-out: Aβ 38 IC50
# [5] = 5 h, read-out: Aβ 38 DR IC50 Inflection
# [6] = 5 h, read-out: Aβ 40 DR IC50 Inflection
SMILES,IC50 (Aβ-42; [1]) [nM],IC50 (Aβ-42; [2]) [nM],IC50 (Aβ-40; [3]) [nM],IC50 (Aβ-38; [4]) [nM],IC50 (Aβ-38; [5]) [nM],IC50 (Aβ-40; [6]) [nM]
CCO[C@@H]([C@H]1C[C@@H](C)[C@H]2[C@H](O1)[C@H](O)[C@@]1(C)[C@@H]3CC[C@H]4C(C)(C)[C@@H](OC(=O)N5CCN(CC(=O)O)CC5)CC[C@@]45C[C@@]35CC[C@]21C)C(C)(C)O [Compound I-5],100 to 500,100 to 500,> 5000,,,
CCO[C@@H]([C@H]1C[C@@H](C)[C@H]2[C@H](O1)[C@H](O)[C@@]1(C)[C@@H]3CC[C@H]4C(C)(C)[C@@H](OC(=O)NC5CN(C6CCC6)C5)CC[C@@]45C[C@@]35CC[C@]21C)C(C)(C)O [Compound I-22],100 to 500,100 to 500,1000 to 5000,501 to 1000,,
CCO[C@@H]([C@H]1C[C@@H](C)[C@H]2[C@H](O1)[C@H](O)[C@@]1(C)[C@@H]3CC[C@H]4C(C)(C)[C@@H](OC(=O)NCCN5CC(OC)C5)CC[C@@]45C[C@@]35CC[C@]21C)C(C)(C)O [Compound I-13],100 to 500,100 to 500,,1000 to 5000,,
CCO[C@@H]([C@H]1C[C@@H](C)[C@H]2[C@H](O1)[C@H](O)[C@@]1(C)[C@@H]3CC[C@H]4C(C)(C)[C@@H](OC(=O)N5CC(N6CC(OC)C6)C5)CC[C@@]45C[C@@]35CC[C@]21C)C(C)(C)O [Compound I-21],100 to 500,100 to 500,,501 to 1000,,
CCO[C@@H]([C@H]1C[C@@H](C)[C@H]2[C@H](O1)[C@H](O)[C@@]1(C)[C@@H]3CC[C@H]4C(C)(C)[C@@H](OC(=O)NCCN5CC(F)(F)C5)CC[C@@]45C[C@@]35CC[C@]21C)C(C)(C)O [Compound I-18],100 to 500,100 to 500,> 5000,501 to 1000,,
CCO[C@@H]([C@H]1C[C@@H](C)[C@H]2[C@H](O1)[C@H](O)[C@@]1(C)[C@@H]3CC[C@H]4C(C)(C)[C@@H](OC(=O)NCCN5CCN(C6CCC6)CC5)CC[C@@]45C[C@@]35CC[C@]21C)C(C)(C)O [Compound I-19],100 to 500,100 to 500,,,,
CCO[C@@H]([C@H]1C[C@@H](C)[C@H]2[C@H](O1)[C@H](O)[C@@]1(C)[C@@H]3CC[C@H]4C(C)(C)[C@@H](OC(=O)N5CC(N6CCC6)C5)CC[C@@]45C[C@@]35CC[C@]21C)C(C)(C)O [Compound I-20],,< 100,,100 to 500,,
CCO[C@@H]([C@H]1C[C@@H](C)[C@H]2[C@H](O1)[C@H](O)[C@@]1(C)[C@@H]3CC[C@H]4C(C)(C)[C@@H](OC(=O)NCCNS(=O)(=O)C(F)(F)F)CC[C@@]45C[C@@]35CC[C@]21C)C(C)(C)O [Compound I-1],,501 to 1000,,1000 to 5000,,
CCO[C@@H]([C@H]1C[C@@H](C)[C@H]2[C@H](O1)[C@H](O)[C@@]1(C)[C@@H]3CC[C@H]4C(C)(C)[C@@H](OC(=O)N5CCNC(C(F)(F)F)C5)CC[C@@]45C[C@@]35CC[C@]21C)C(C)(C)O (stereo partly shown) [Compound I-3],,100 to 500,,1000 to 5000,,
CCO[C@@H]([C@H]1C[C@@H](C)[C@H]2[C@H](O1)[C@H](O)[C@@]1(C)[C@@H]3CC[C@H]4C(C)(C)[C@@H](OC(=O)N5CCN(C6COC6)CC5)CC[C@@]45C[C@@]35CC[C@]21C)C(C)(C)O [Compound I-4],100 to 500,100 to 500,> 5000,1000 to 5000,,
CCO[C@@H]([C@H]1C[C@@H](C)[C@H]2[C@H](O1)[C@H](O)[C@@]1(C)[C@@H]3CC[C@H]4C(C)(C)[C@@H](OC(=O)N(C)C5CN(C)C5)CC[C@@]45C[C@@]35CC[C@]21C)C(C)(C)O [Compound I-2],< 100,< 100,1000 to 5000,100 to 500,< 100,> 5000
CCO[C@@H]([C@H]1C[C@@H](C)[C@H]2[C@H](O1)[C@H](O)[C@@]1(C)[C@@H]3CC[C@H]4C(C)(C)[C@@H](OC(=O)N5CC(NC)C5)CC[C@@]45C[C@@]35CC[C@]21C)C(C)(C)O [Compound I-9],100 to 500,100 to 500,1000 to 5000,100 to 500,100 to 500,
CCO[C@@H]([C@H]1C[C@@H](C)[C@H]2[C@H](O1)[C@H](O)[C@@]1(C)[C@@H]3CC[C@H]4C(C)(C)[C@@H](OC(=O)NCCN5CCN(CC(F)F)CC5)CC[C@@]45C[C@@]35CC[C@]21C)C(C)(C)O [Compound I-24],100 to 500,100 to 500,1000 to 5000,,,
CCO[C@@H]([C@H]1C[C@@H](C)[C@H]2[C@H](O1)[C@H](O)[C@@]1(C)[C@@H]3CC[C@H]4C(C)(C)[C@@H](OC(=O)N(C)CC(=O)O)CC[C@@]45C[C@@]35CC[C@]21C)C(C)(C)O [Compound I-6],,501 to 1000,,,,
CCO[C@@H]([C@H]1C[C@@H](C)[C@H]2[C@H](O1)[C@H](O)[C@@]1(C)[C@@H]3CC[C@H]4C(C)(C)[C@@H](OC(=O)NCCN5CCOCC5)CC[C@@]45C[C@@]35CC[C@]21C)C(C)(C)O [Compound I-12],100 to 500,100 to 500,> 5000,1000 to 5000,,
CCO[C@@H]([C@H]1C[C@@H](C)[C@H]2[C@H](O1)[C@H](O)[C@@]1(C)[C@@H]3CC[C@H]4C(C)(C)[C@@H](OC(=O)NCCN(C)C)CC[C@@]45C[C@@]35CC[C@]21C)C(C)(C)O [Compound I-11],100 to 500,100 to 500,,,,
CCO[C@@H]([C@H]1C[C@@H](C)[C@H]2[C@H](O1)[C@H](O)[C@@]1(C)[C@@H]3CC[C@H]4C(C)(C)[C@@H](OC(=O)N5CCN(C)CC5)CC[C@@]45C[C@@]35CC[C@]21C)C(C)(C)O [Compound I-8],< 100,< 100,1000 to 5000,100 to 500,< 100,> 5000
CCO[C@@H]([C@H]1C[C@@H](C)[C@H]2[C@H](O1)[C@H](O)[C@@]1(C)[C@@H]3CC[C@H]4C(C)(C)[C@@H](OC(=O)N5CCNCC5)CC[C@@]45C[C@@]35CC[C@]21C)C(C)(C)O [Compound I-10],,< 100,,100 to 500,,
CCO[C@@H]([C@H]1C[C@@H](C)[C@H]2[C@H](O1)[C@H](O)[C@@]1(C)[C@@H]3CC[C@H]4C(C)(C)[C@@H](OC(=O)N5CCN(CCOC)CC5)CC[C@@]45C[C@@]35CC[C@]21C)C(C)(C)O [Compound I-7],100 to 500,100 to 500,,501 to 1000,,
CCO[C@@H]([C@H]1C[C@@H](C)[C@H]2[C@H](O1)[C@H](O)[C@@]1(C)[C@@H]3CC[C@H]4C(C)(C)[C@@H](OC(=O)NCCN5CCN(C6COC6)CC5)CC[C@@]45C[C@@]35CC[C@]21C)C(C)(C)O [Compound I-17],100 to 500,100 to 500,1000 to 5000,100 to 500,,
CCO[C@@H]([C@H]1C[C@@H](C)[C@H]2[C@H](O1)[C@H](O)[C@@]1(C)[C@@H]3CC[C@H]4C(C)(C)[C@@H](OC(=O)NCCN5CC(O)C5)CC[C@@]45C[C@@]35CC[C@]21C)C(C)(C)O [Compound I-15],100 to 500,100 to 500,,,,
CCO[C@@H]([C@H]1C[C@@H](C)[C@H]2[C@H](O1)[C@H](O)[C@@]1(C)[C@@H]3CC[C@H]4C(C)(C)[C@@H](OC(=O)NC5CN(C6CN(C7CCC7)C6)C5)CC[C@@]45C[C@@]35CC[C@]21C)C(C)(C)O [Compound I-23],,100 to 500,,501 to 1000,,
CCO[C@@H]([C@H]1C[C@@H](C)[C@H]2[C@H](O1)[C@H](O)[C@@]1(C)[C@@H]3CC[C@H]4C(C)(C)[C@@H](OC(=O)NCCN5CC(F)C5)CC[C@@]45C[C@@]35CC[C@]21C)C(C)(C)O [Compound I-14],100 to 500,100 to 500,,,,
CCO[C@@H]([C@H]1C[C@@H](C)[C@H]2[C@H](O1)[C@H](O)[C@@]1(C)[C@@H]3CC[C@H]4C(C)(C)[C@@H](OC(=O)NCCN5CCC5)CC[C@@]45C[C@@]35CC[C@]21C)C(C)(C)O [Compound I-16],100 to 500,100 to 500,,,,
